Key:
Assay in all cases: EC50 assay: Ba/F3 stable cell proliferation (CCK-8, 72 h)
Type in all cases: cell-based
Ba/F3 stable cells [1] = target: T1, Ba/F3 stable cells (Homo sapiens, UniProt P00533, T790M/L858R, cells depend on it); conditions: Ba/F3-EGFR L858R-T790M cells
T1 construct: EC50 Ba/F3-EGFR L858R-T790M; other: Ba/F3-EGFR L858R-T790M cells, 72 h, CCK-8
Summary of the method: (§1)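 Ba/F3 stable cells were seeded at 4,000 cells/90 μL/well in 96-well plates and held 2 h at 37° C. in 5% CO2, then given 10 μL of serially titrated compound (0.1% DMSO final). After 72 h at 37° C., CCK-8 reagent was added for 4 hours and absorbance read at 450 nm to derive EC50.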

Ba/F3 stable cells [2] = target: T2, Ba/F3 stable cells (Homo sapiens, UniProt P00533, DUP768-770, cells depend on it); conditions: Ba/F3-EGFR D770-N771insSVD cells
T2 construct: EC50 Ba/F3-EGFR D770-N771insSVD; other: Ba/F3-EGFR D770-N771insSVD cells, 72 h, CCK-8
T2 sequence (P00533 with tags, fused parts or gaps DUP768-770): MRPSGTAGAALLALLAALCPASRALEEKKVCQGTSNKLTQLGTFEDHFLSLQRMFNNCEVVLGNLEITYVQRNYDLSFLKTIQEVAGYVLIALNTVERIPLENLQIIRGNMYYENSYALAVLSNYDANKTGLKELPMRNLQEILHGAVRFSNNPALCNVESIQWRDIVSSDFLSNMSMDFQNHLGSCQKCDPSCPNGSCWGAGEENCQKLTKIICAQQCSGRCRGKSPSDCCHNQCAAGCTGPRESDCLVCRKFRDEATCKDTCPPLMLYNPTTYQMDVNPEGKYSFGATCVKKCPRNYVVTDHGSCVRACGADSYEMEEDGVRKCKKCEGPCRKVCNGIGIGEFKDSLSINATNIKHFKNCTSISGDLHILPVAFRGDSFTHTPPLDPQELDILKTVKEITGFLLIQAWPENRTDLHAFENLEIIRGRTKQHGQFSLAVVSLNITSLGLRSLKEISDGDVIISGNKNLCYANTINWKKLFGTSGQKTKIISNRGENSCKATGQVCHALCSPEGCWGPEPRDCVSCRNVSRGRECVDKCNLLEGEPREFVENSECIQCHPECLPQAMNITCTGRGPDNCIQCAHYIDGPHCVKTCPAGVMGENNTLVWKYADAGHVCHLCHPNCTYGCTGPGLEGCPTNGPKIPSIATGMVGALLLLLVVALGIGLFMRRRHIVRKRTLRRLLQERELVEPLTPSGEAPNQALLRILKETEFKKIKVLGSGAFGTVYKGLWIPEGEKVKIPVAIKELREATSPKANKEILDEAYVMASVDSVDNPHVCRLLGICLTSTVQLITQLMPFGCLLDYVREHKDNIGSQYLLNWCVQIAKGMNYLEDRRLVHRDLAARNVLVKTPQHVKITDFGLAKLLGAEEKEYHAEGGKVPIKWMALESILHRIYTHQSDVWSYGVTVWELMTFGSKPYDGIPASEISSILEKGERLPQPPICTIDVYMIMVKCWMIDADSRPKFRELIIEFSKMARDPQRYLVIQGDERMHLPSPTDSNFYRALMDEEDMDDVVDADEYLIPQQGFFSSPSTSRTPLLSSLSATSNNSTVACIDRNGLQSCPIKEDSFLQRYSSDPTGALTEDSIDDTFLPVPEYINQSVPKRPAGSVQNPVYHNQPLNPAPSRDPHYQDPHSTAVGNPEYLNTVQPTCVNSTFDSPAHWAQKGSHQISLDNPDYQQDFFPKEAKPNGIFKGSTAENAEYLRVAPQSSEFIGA
Summary of the method: as §1

Ba/F3 stable cells [3] = target: T3, Ba/F3 stable cells (Homo sapiens, UniProt P00533, DUP771-773, cells depend on it); conditions: Ba/F3-EGFR H773-V774insNPH cells
T3 construct: EC50 Ba/F3-EGFR H773-V774insNPH; other: Ba/F3-EGFR H773-V774insNPH cells, 72 h, CCK-8
Summary of the method: as §1

Ba/F3 stable cells [4] = target: T4, Ba/F3 stable cells (Homo sapiens, UniProt P00533, DUP767-769, cells depend on it); conditions: Ba/F3-EGFR V769-D770insASV cells
T4 construct: EC50 Ba/F3-EGFR V769-D770insASV; other: Ba/F3-EGFR V769-D770insASV cells, 72 h, CCK-8
T4 sequence (P00533 with tags, fused parts or gaps DUP767-769): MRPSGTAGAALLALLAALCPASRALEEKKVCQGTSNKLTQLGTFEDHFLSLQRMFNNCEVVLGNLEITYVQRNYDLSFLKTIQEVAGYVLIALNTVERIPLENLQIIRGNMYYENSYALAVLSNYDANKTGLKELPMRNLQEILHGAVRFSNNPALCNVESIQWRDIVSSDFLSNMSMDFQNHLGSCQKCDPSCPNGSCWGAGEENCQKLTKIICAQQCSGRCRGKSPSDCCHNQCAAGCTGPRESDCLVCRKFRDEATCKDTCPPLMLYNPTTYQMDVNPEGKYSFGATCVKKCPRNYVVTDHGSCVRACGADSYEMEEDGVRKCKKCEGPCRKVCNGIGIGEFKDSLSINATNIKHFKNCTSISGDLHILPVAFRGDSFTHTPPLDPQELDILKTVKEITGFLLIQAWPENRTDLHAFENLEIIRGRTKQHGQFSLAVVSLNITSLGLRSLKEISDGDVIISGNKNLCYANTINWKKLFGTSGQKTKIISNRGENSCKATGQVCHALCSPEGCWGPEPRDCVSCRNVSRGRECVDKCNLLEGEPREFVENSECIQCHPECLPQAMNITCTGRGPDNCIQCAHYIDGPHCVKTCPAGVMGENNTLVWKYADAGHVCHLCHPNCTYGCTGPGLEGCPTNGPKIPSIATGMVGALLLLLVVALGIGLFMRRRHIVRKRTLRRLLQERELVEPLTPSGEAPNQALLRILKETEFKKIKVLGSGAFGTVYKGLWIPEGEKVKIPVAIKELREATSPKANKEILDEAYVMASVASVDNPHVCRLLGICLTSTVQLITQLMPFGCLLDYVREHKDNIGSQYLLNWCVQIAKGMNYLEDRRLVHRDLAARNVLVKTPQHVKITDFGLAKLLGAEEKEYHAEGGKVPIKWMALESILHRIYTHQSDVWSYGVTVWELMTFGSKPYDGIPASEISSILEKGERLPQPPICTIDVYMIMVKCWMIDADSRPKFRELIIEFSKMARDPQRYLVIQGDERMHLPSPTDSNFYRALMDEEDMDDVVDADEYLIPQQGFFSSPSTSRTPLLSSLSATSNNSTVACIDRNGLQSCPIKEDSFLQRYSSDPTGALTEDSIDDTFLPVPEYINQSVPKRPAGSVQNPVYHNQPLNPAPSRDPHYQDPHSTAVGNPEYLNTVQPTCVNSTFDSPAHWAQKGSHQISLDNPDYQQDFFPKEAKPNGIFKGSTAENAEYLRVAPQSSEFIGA
Summary of the method: as §1

Ba/F3 stable cells [5] = target: T5, Ba/F3 stable cells (Homo sapiens, UniProt P00533, INS763FQEA, cells depend on it); conditions: Ba/F3-EGFR A763-Y764insFQEA cells
T5 construct: EC50 Ba/F3-EGFR A763-Y764insFQEA; other: Ba/F3-EGFR A763-Y764insFQEA cells, 72 h, CCK-8
T5 sequence (P00533 with tags, fused parts or gaps INS763FQEA): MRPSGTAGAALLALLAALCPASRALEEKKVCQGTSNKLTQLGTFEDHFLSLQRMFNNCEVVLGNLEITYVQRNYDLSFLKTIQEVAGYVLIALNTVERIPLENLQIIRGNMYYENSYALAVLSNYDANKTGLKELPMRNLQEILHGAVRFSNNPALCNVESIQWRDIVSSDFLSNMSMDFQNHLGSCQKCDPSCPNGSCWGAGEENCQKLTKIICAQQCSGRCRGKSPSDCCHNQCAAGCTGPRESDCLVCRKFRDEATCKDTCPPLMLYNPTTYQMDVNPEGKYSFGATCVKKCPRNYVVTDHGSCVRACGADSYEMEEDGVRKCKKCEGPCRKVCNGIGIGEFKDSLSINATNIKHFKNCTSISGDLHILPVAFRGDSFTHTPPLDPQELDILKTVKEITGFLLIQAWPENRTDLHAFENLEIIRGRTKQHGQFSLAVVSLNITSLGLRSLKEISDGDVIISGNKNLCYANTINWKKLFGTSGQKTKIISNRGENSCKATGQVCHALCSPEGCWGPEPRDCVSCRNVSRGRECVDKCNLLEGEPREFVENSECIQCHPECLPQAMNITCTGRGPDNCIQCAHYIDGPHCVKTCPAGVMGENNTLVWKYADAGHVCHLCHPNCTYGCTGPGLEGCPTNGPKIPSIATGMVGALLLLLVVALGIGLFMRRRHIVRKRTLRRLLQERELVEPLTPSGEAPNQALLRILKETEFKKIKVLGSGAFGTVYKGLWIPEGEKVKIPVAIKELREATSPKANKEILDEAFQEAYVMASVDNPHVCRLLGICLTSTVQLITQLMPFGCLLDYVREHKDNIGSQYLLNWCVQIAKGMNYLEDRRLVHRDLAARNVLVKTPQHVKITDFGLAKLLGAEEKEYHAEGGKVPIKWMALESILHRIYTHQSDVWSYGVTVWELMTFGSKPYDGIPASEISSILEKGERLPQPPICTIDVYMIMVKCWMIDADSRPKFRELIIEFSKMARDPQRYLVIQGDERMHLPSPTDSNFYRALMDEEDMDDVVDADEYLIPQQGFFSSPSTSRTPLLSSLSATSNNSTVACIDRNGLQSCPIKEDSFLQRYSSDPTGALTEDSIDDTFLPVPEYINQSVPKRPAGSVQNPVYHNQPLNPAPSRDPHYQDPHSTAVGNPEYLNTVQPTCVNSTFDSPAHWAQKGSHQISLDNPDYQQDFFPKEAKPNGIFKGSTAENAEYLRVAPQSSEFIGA
Summary of the method: as §1

Ba/F3 stable cells [6] = target: T6, Ba/F3 stable cells (Homo sapiens, UniProt P04626, DUP772-775, cells depend on it); conditions: Ba/F3-HER2 A775-G776insYVMA cells
T6 construct: EC50 Ba/F3-HER2 A775-G776insYVMA; other: Ba/F3-HER2 A775-G776insYVMA cells, 72 h, CCK-8
Summary of the method: as §1

T1 sequence (P00533 whole entry T790M/L858R): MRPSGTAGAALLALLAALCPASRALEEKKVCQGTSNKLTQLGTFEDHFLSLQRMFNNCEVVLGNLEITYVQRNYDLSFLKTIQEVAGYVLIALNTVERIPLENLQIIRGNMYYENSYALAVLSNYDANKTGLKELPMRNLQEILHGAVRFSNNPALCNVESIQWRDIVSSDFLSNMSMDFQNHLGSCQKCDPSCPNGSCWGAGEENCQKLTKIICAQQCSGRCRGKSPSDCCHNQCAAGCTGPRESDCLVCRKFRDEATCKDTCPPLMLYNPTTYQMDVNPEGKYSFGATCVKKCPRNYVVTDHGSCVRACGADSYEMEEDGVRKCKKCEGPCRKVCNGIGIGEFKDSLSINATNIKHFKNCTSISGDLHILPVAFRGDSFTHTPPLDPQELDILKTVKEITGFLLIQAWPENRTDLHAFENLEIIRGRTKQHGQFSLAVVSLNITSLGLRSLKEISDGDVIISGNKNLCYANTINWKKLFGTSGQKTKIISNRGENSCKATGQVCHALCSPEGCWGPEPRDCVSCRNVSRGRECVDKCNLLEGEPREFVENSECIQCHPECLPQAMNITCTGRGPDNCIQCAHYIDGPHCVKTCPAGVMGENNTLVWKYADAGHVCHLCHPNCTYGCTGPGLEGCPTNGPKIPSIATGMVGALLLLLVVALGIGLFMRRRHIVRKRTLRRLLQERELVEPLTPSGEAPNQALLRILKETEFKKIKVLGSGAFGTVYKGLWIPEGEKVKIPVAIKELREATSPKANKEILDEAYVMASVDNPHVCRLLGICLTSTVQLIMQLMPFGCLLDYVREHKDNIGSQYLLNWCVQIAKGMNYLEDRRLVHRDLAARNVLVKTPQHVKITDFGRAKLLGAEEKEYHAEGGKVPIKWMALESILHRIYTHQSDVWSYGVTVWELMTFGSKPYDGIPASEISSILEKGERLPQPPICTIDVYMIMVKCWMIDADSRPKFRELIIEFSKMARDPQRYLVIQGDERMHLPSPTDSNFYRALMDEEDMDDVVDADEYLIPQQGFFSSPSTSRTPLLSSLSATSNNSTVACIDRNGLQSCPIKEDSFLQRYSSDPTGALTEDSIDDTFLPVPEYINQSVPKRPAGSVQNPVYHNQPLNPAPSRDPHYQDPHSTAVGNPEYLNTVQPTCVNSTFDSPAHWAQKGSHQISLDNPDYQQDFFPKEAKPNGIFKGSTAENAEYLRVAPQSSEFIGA

Structure (SMILES) | EC50 (Ba/F3 stable cells [1]) [nM] | EC50 (Ba/F3 stable cells [2]) [nM] | EC50 (Ba/F3 stable cells [3]) [nM] | EC50 (Ba/F3 stable cells [4]) [nM] | EC50 (Ba/F3 stable cells [5]) [nM] | EC50 (Ba/F3 stable cells [6]) [nM]
C=CC(=O)N1CCC(Oc2cc3c(Nc4ccc5ncccc5c4)ncnc3cc2OC)CC1 [Compound 143, 1-(4-((7-methoxy-4-(quinolin-6-ylamino)quinazolin-6-yl)oxy)piperidin-1-yl)prop-2-en-1-one] | 200 to 1000 | > 1000 | 200 to 1000 | ≤ 200 | ≤ 200 | 200 to 1000
C=CC(=O)N1CC(c2cc3c(Nc4ccc(Cl)c(Cl)c4F)ncnc3cc2OCCO)C1 [Compound 19, 1-(3-(4-((3,4-dichloro-2-fluorophenyl)amino)-7-(2-hydroxyethoxy)quinazolin-6-yl)azetidin-1-yl)prop-2-en-1-one] | ≤ 200 | ≤ 200 | ≤ 200 | ≤ 200 | ≤ 200 | ≤ 200
C=CC(=O)N1CCC(Oc2cc3c(Nc4cnc5ccccc5c4)ncnc3cc2OC)CC1 [Compound 135, 1-(4-((7-methoxy-4-(quinolin-3-ylamino)quinazolin-6-yl)oxy)piperidin-1-yl)prop-2-en-1-one] | 200 to 1000 | 200 to 1000 | 200 to 1000 | ≤ 200 | ≤ 200 | 200 to 1000
C=CC(=O)N1CCC(Oc2cc3c(Nc4cccc5cc[nH]c45)ncnc3cc2OC)CC1 [Compound 166, 1-(4-((4-((1H-indol-7-yl)amino)-7-methoxyquinazolin-6-yl)oxy)piperidin-1-yl)prop-2-en-1-one] | 200 to 1000 | > 1000 | ≤ 200 | ≤ 200 | ≤ 200 | ≤ 200
C=CC(=O)N1CCC(Oc2c(OC)cc3ncnc(Nc4ccc(Cl)c(Cl)c4F)c3c2[N+](=O)[O-])CC1 [Compound 208, 1-(4-((4-((3,4-dichloro-2-fluorophenyl)amino)-7-methoxy-5-nitroquinazolin-6-yl)oxy)piperidin-1-yl)prop-2-en-1-one] | > 1000 | > 1000 | > 1000 | > 1000 | 200 to 1000 | > 1000
C=CC(=O)N1CCC(Oc2cc3c(NCc4ccc(Cl)cc4)ncnc3cc2OC)CC1 [Compound 108, 1-(4-((4-((4-chlorobenzyl)amino)-7-methoxyquinazolin-6-yl)oxy)piperidin-1-yl)prop-2-en-1-one] | > 1000 | > 1000 | 200 to 1000 | > 1000 | ≤ 200 | > 1000
C=CC(=O)N1C2CCC1CC(Oc1cc3c(Nc4cccc5ccccc45)ncnc3cc1OC)C2 (stereo not drawn) [Compound 181, 1-(3-((7-methoxy-4-(naphthalen-1-ylamino)quinazolin-6-yl)oxy)-8-azabicyclo[3.2.1]octan-8-yl)prop-2-en-1-one] | ≤ 200 | ≤ 200 | ≤ 200 | ≤ 200 | ≤ 200 | ≤ 200
C=CC(=O)N1CC(c2cc3c(Nc4ccc(Cl)c(Cl)c4F)ncnc3cc2OCCCN2CCOCC2)C1 [Compound 30, 1-(3-(4-((3,4-dichloro-2-fluorophenyl)amino)-7-(3-morpholinopropoxy)quinazolin-6-yl)azetidin-1-yl)prop-2-en-1-one] | ≤ 200 | ≤ 200 | ≤ 200 | ≤ 200 | ≤ 200 | ≤ 200
COc1cc2ncnc(Nc3ccc(Cl)c(Cl)c3F)c2cc1OC1CC(N(C)C#N)C1 (stereo not drawn) [Compound 196, N-(3-((4-((3,4-dichloro-2-fluorophenyl)amino)-7-methoxy-quinazolin-6-yl)oxy)cyclobutyl)-N-methylcyanamide] | > 1000 | 200 to 1000 | 200 to 1000 | ≤ 200 | ≤ 200 | 200 to 1000
C=CC(=O)N1CC(c2cc3c(Nc4ccc(F)c(Cl)c4F)ncnc3cc2OC)C1 [Compound 16, 1-(3-(4-((3-chloro-2,4-difluorophenyl)amino)-7-methoxyquinazolin-6-yl)azetidin-1-yl)prop-2-en-1-one] | ≤ 200 | ≤ 200 | ≤ 200 | ≤ 200 | ≤ 200 | ≤ 200
